Drawing on PubChem BioAssay (NCI), this text covers TGI for 19 compounds.

Some test systems named below: CAKI-1 renal; CCRF-CEM leukemia; HCC-2998 colon; HCT-15 colon; K-562 leukemia; MALME-3M melanoma; MDA-N; NCI-H460 lung; SF-539 CNS; SW-620 colon.
What all share (assay): NCI tumour cell line growth inhibition, 48 h

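48-hour exposure; five concentrations; linearly interpolated endpoints. The concentration for full growth arrest is given as TGI.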 Where a SMILES comes first, the peptide text is derived from it. The star is where a group is joined. Boc = CC(C)(C)OC(=O)*; OBn = c1ccc(CO*)cc1

For the compound `CN(C)CCNC(=O)c1cccc2nc3c(nc12)-c1ccccc1C3=O`, the TGI was 66.4 µM with CAKI-1 renal; 17.4 µM in the test with CCRF-CEM leukemia; 38.1 µM with HCC-2998 colon; 41.4 µM in the test on HCT-15 colon; greater than 100 µM with K-562 leukemia; 24.2 µM with MALME-3M melanoma. Moreover, the TGI with MDA-N was 25.7 µM; with NCI-H460 lung it was 18.9 µM; in the test on SF-539 CNS it was 27 µM; with SW-620 colon, 39.4 µM.

Turning to `COc1ccc2c(c1)n([O-])c(C#N)c(N1CCN(c3ccc([N+](=O)[O-])cc3)CC1)[n+]2=O`, the TGI in the test with CAKI-1 renal was greater than 100 µM; in the test on CCRF-CEM leukemia, greater than 100 µM; with HCC-2998 colon, greater than 100 µM; in the test on HCT-15 colon, greater than 100 µM; with K-562 leukemia it was greater than 100 µM; in the test with MALME-3M melanoma it was 19.1 µM. Besides, the TGI with MDA-N is greater than 100 µM; with NCI-H460 lung, greater than 100 µM; in the test with SF-539 CNS, 6.23 µM; with SW-620 colon, greater than 100 µM.

For `COc1cccc(N(CN2CC=CC2=O)C(C)=O)c1`, the TGI in the test with CAKI-1 renal, with CCRF-CEM leukemia, with HCC-2998 colon, in the test with HCT-15 colon, in the test with K-562 leukemia and with MALME-3M melanoma was greater than 100 µM each time. Further, the TGI with MDA-N, with NCI-H460 lung, in the test on SF-539 CNS and in the test with SW-620 colon was greater than 100 µM throughout.

With `CSc1c(C#N)c(=O)[nH]c2n[nH]c(C)c12`, the TGI in the test with CAKI-1 renal, in the test with CCRF-CEM leukemia, with HCC-2998 colon, with HCT-15 colon, in the test with K-562 leukemia and in the test with MALME-3M melanoma was greater than 100 µM each time. Moreover, the TGI with MDA-N, with NCI-H460 lung, in the test with SF-539 CNS and in the test with SW-620 colon was greater than 100 µM in each case.

Consider `O=C(OCc1ccccc1)C1(N2CN(C3(C(=O)OCc4ccccc4)CCCC3)CN(C3(C(=O)OCc4ccccc4)CCCC3)C2)CCCC1`, for which the TGI in the test with CAKI-1 renal, in the test on CCRF-CEM leukemia, in the test on HCC-2998 colon, with HCT-15 colon, in the test on K-562 leukemia and in the test with MALME-3M melanoma was greater than 10 µM throughout. Further, the TGI with MDA-N, in the test with NCI-H460 lung, in the test with SF-539 CNS and in the test with SW-620 colon was greater than 10 µM in each case.

As to `COC(=O)n1c(=O)n(-c2ccccc2)c(=O)n1C(=O)OC`, the TGI with CAKI-1 renal, in the test with CCRF-CEM leukemia, with HCC-2998 colon, with HCT-15 colon, in the test on K-562 leukemia and with MALME-3M melanoma was greater than 100 µM throughout. Besides, the TGI in the test on MDA-N, in the test on NCI-H460 lung, in the test with SF-539 CNS and with SW-620 colon was greater than 100 µM throughout.

Turning to `O=c1cc(N2CCCC2)[nH]c(=O)n1-c1cccc(C(F)(F)F)c1`, the TGI in the test with CAKI-1 renal, with CCRF-CEM leukemia, in the test with HCC-2998 colon, in the test on HCT-15 colon, in the test with K-562 leukemia and in the test on MALME-3M melanoma was greater than 100 µM in each case. Further, the TGI in the test on MDA-N, in the test on NCI-H460 lung, in the test on SF-539 CNS and with SW-620 colon was greater than 100 µM each time.

On to `C=C(CC[C@@H](C(=O)O)[C@H]1[C@H](O)C[C@@]2(C)C3=CC[C@@H](C(=C)C)[C@](C)(CCC(=O)O)C3=CC[C@]12C)C(C)C`, for which the TGI was 28.9 µM in the test with CAKI-1 renal; greater than 100 µM in the test with CCRF-CEM leukemia; 32.4 µM in the test on HCC-2998 colon; 31.4 µM in the test on HCT-15 colon; greater than 100 µM with K-562 leukemia; 40.8 µM with MALME-3M melanoma. In addition, the TGI was 32 µM in the test with MDA-N, 34.7 µM in the test on NCI-H460 lung, 37.7 µM in the test with SF-539 CNS and 55.5 µM in the test with SW-620 colon.

Turning to `Fc1ccc(N=NN2CCCC2)cc1`, the TGI with CAKI-1 renal, in the test with CCRF-CEM leukemia, in the test on HCC-2998 colon, in the test with HCT-15 colon, with K-562 leukemia and with MALME-3M melanoma was greater than 100 µM in each case. Also, the TGI with MDA-N, with NCI-H460 lung, in the test with SF-539 CNS and in the test with SW-620 colon was greater than 100 µM each time.

With `CCOC(=O)/C=C(/C(=O)OCC)n1cc(C)c(=O)n(Cc2cn(COCCOC(C)=O)nn2)c1=O`, the TGI was 23.6 µM in the test with CAKI-1 renal; 5.33 µM in the test on CCRF-CEM leukemia; 37.6 µM with HCC-2998 colon; greater than 61.9 µM with HCT-15 colon; 63.2 µM with K-562 leukemia; 23.7 µM in the test on MALME-3M melanoma. Besides, the TGI with MDA-N was greater than 85.4 µM; in the test with NCI-H460 lung it was greater than 63.1 µM; with SF-539 CNS, 38.1 µM; in the test with SW-620 colon, greater than 57.6 µM.

In the case of `Nc1ccccc1N/C=C\C(=O)C(Cl)(Cl)Cl`, the TGI was 51.3 µM in the test with CAKI-1 renal; greater than 100 µM in the test on CCRF-CEM leukemia; 31.7 µM in the test with HCC-2998 colon; 46.1 µM in the test on HCT-15 colon; 78.9 µM with K-562 leukemia; greater than 100 µM with MALME-3M melanoma. For the same compound, the TGI with MDA-N is 30.9 µM; with NCI-H460 lung it was greater than 100 µM; in the test on SF-539 CNS it was greater than 100 µM; in the test with SW-620 colon, 48.1 µM.

For the compound `O=C1c2c(nc3ccccc3c2-c2ccccc2)CN1Nc1ccccn1`, the TGI in the test on CAKI-1 renal was greater than 86.9 µM; with CCRF-CEM leukemia it was greater than 100 µM; in the test on HCC-2998 colon, greater than 100 µM; in the test on HCT-15 colon, greater than 100 µM; with K-562 leukemia, greater than 100 µM; in the test with MALME-3M melanoma it was greater than 100 µM. The TGI in the test with MDA-N is greater than 100 µM; in the test on NCI-H460 lung it was greater than 83.2 µM; with SF-539 CNS it was 99.5 µM; with SW-620 colon, greater than 100 µM.

Turning to `COc1cc(/C=C2\CCC(CN(C)C)C2=O)ccc1OC(=O)c1ccccc1` (stereo not given), the TGI turned out to be 32.5 µM in the test on CAKI-1 renal; 9.77 µM with CCRF-CEM leukemia; 30.1 µM in the test on HCC-2998 colon; 20.4 µM with HCT-15 colon; 9.04 µM with K-562 leukemia; 29.5 µM in the test on MALME-3M melanoma. Besides, the TGI in the test with MDA-N was determined as 29.6 µM; in the test on NCI-H460 lung, 37.7 µM; with SF-539 CNS, 30.4 µM; in the test on SW-620 colon, 17.8 µM.

As for `NC(=O)c1ccc2c(c1)S(=O)(=O)c1ccccc1C2=O`, the TGI with CAKI-1 renal, in the test on CCRF-CEM leukemia, in the test with HCC-2998 colon, in the test with HCT-15 colon, in the test on K-562 leukemia and in the test with MALME-3M melanoma was greater than 100 µM each time. Further, the TGI in the test on MDA-N, with NCI-H460 lung, in the test on SF-539 CNS and with SW-620 colon was greater than 100 µM throughout.

On to `CCOC(=O)/C=C(\C(=O)OCC)n1ccc(N)nc1=O`, for which the TGI was greater than 100 µM in the test on CAKI-1 renal; 60.5 µM in the test on CCRF-CEM leukemia; greater than 100 µM in the test on HCC-2998 colon; greater than 100 µM in the test with HCT-15 colon; greater than 100 µM in the test on K-562 leukemia; greater than 100 µM in the test with MALME-3M melanoma. Besides, the TGI in the test with MDA-N, with NCI-H460 lung, with SF-539 CNS and in the test with SW-620 colon was greater than 100 µM throughout.

In the case of `COC(OC)C1OC(CO)C(n2ccc(N)nc2=O)C1O` (stereo not given), the TGI in the test on CAKI-1 renal, in the test with CCRF-CEM leukemia, in the test on HCC-2998 colon, in the test with HCT-15 colon, in the test on K-562 leukemia and with MALME-3M melanoma was greater than 100 µM each time. In addition, the TGI with MDA-N, in the test with NCI-H460 lung, in the test with SF-539 CNS and in the test on SW-620 colon was greater than 100 µM each time.

For `CC(NC(=O)C(NC(=O)OC(C)(C)C)C(C)C)C(=O)N1CCCC1C(=O)NCC(=O)NC(C(=O)NCC(=O)OCc1ccccc1)C(C)C` (stereo not given) (Boc-VAPGVG-OBn; configuration not given here), the TGI with CAKI-1 renal, in the test on CCRF-CEM leukemia, with HCC-2998 colon, in the test with HCT-15 colon, in the test on K-562 leukemia and with MALME-3M melanoma was greater than 100 µM each time. In addition, the TGI in the test on MDA-N, in the test with NCI-H460 lung, in the test with SF-539 CNS and in the test on SW-620 colon was greater than 100 µM each time.

As for `O=[N+]([O-])c1ccc(N=Nc2c(O)c(S(=O)(=O)O)cc3cc(S(=O)(=O)O)ccc23)cc1`, the TGI with CAKI-1 renal, in the test with CCRF-CEM leukemia, in the test with HCC-2998 colon, with HCT-15 colon, with K-562 leukemia and in the test with MALME-3M melanoma was greater than 100 µM each time. Besides, the TGI in the test with MDA-N, in the test on NCI-H460 lung, in the test on SF-539 CNS and with SW-620 colon was greater than 100 µM throughout.

With `CSC1=C(C#N)C(=O)N(c2ccc(C)cc2)C(=S)C1C#N` (stereo not given), the TGI in the test on CAKI-1 renal, in the test on CCRF-CEM leukemia, with HCC-2998 colon, with HCT-15 colon, with K-562 leukemia and in the test on MALME-3M melanoma was greater than 100 µM throughout. In addition, the TGI with MDA-N, in the test on NCI-H460 lung, in the test with SF-539 CNS and in the test with SW-620 colon was greater than 100 µM in each case.
